Laboratory results reported in US5719129A, “Derivative of caffeic acid, oraposide, and cosmetic or pharmaceutical compositions, in particular dermatological compositions, containing it” (priority 1993, dated 1998).

Experiments:
[1] = UV absorption of oraposide compared with sunscreen filters (integration of UVB and UVA peak surface areas); format: physicochemical
Description: Integration of the surface areas of the UVB peaks can be used to compare oraposide with Parsol MCX®, from which it can be seen that the UVB absorption activity of oraposide is 0.4 times that of Parsol MCX®. If the surface area of the UVA peak of oraposide is integrated and compared with Parsol 1 789®, it will be seen that the UVA absorption of oraposide is approximately 0.2 times that of Parsol 1 789®.

[2] = tested on: rabbit hepatocytes; test: LDH release by hepatocytes in primary culture intoxicated with nitroxynil; format: cell-based; settings: oraposide 5.10^-5 M (0.05 mM); nitroxynil 10^-4 M; 3 and 7 hours (FIG. 1)
Description: Reference 1 in the two blocks of histograms indicates the results obtained with untreated cultures, acting as controls, reference 2 indicates histogram blocks obtained using cultures treated with nitroxynil at a concentration of 10^-4 M, reference 3 indicates histogram blocks obtained with cultures treated with nitroxynil in a concentration of 10^-4 M and verbascoside in a concentration of 5.10 ^-5 M, reference 4 indicates histogram blocks obtained with cultures treated with nitroxynil in a concentration of 10^-4 M and oraposide in a concentration of 5.10^-5 M, and reference 5 indicates histogram blocks obtained with cultures treated with nitroxynil in a concentration of 10^-4 M and arenarioside in a concentration of 5.10^-5 M. Nitroxynil is a hepatotoxic agent, verbascoside and arenarioside are other heteroside esters of caffeic acid which are known to those skilled in the art.
(§1) The experimental model selected was investigation of the release of lactate dehydrogenase (LDH) by rabbit hepatocytes in primary culture, this LDH release representing a marker of hepatocyte deterioration.
(§2) The hepatocytes were deliberately intoxicated with nitroxynil (10^-4 to 10^-5 M) or chloroform (10^-3 to 10^-5 M) .
(§3) The effect of oraposide was evaluated for a final concentration of 0.05 mM in the culture medium.

[3] = tested on: rabbit hepatocytes; test: LDH release by hepatocytes in primary culture intoxicated with chloroform; format: cell-based; settings: oraposide 5.10^-5 M; chloroform 10^-4 M; 3, 7 and 24 hours (FIG. 2)
Description: As in FIG. 1, reference 1 indicates the results obtained with untreated cultures, reference 2 the results obtained with cultures treated with 10^-4 M chloroform, and reference 3 the results obtained with cultures treated with a combination of 10^-4 M chloroform and oraposide in a concentration of 5.10^-5 M. Chloroform is also a hepatotoxic agent.
as §1, §2, §3

[4] = tested on: rabbit hepatocytes; test: Cell toxicity of oraposide itself on hepatocytes; format: cell-based; settings: even at a concentration of 100 μM
Description: as §1

[5] = tested on: rabbit liver microsomes; test: Lipoperoxidation inhibition in liver microsomes (malonyl dialdehyde formation); format: biochemical
Protocol: Verbascoside, oraposide and arenarioside are heteroside esters of caffeic acid and the acids cited are other esters of caffeic acid.
A lipoperoxidation reaction takes place when rabbit liver microsomes are incubated in the presence of NADPH.
The microsomes were recovered from the processing of hepatocytes with ultrasound.
Lipoperoxidation was evaluated through the formation of malonyl dialdehyde in accordance with the method by Placer et al., 1966 (Analyt. Biochem. 16,359-364).
The reaction was performed in the absence of (control) and in the presence of caffeic acid or oraposide in a concentration of 5.10^-5 M or in the presence of α-tocopherol (Sigma) at 5.10^-5 M (known inhibiting activity reference).

[6] = tested on: bacterial strains; test: Antibacterial effect, 40 strains belonging to 10 genera of bacteria; format: cell-based; settings: doses of 0.5 mg/ml and above
Description: (§4) It is known that a number of caffeic acid derivatives inhibit the growth of bacteria and fungi. This property has been confirmed for oraposide with 40 different strains belonging to 10 genera of bacteria, and 25 different strains belonging to 25 species of fungi.
The bacterial strains tested were: Staphylococcus aureus, Streptococcus (group A and group D), Escherichia coli, Klebsiella pneumoniae, Proteus sp., Providentia sp., Serratia marcescens, Enterobacter cloacae, Pseudomonas aeruginosa, Salmonella (S. typhi and S. para-typhi).

[7] = tested on: Staphylococcus aureus; test: Antibacterial effect, 29 strains of Staphylococcus aureus; format: cell-based
[8] = tested on: micromycete contaminants commonly found in foodstuffs; test: Antifungal activity against micromycete contaminants of foodstuffs (25 species); format: cell-based; set-up: Strains whose growth was inhibited or diminished: concentration or dose not given beside the values; settings: 25 species of fungi
Protocol: as §4
Antifungal activity was tested in relation to micromycete contaminants commonly found in foodstuffs. The test was performed with 25 species belonging to the Adelomycetes (e.g. Alternaria tenuis, Fusarium avenceum, Geotricom candidum, etc.), Mucorales (e.g. Mucor mucedo, Cunninghamella elegans, Rhizopus nigricans, etc.), Endomycetes (e.g. Candida lipolytica, Saccharomyces cerevisiae, etc.), Plectomycetes (e.g. Aspergillus clavatus, A. niger, Penicillium chrysogenum, P. rubturm, etc.), and Pyrenomycetes (e.g. Chaetomium globosum, Sordaria himicola, etc.).

[9] = target: T1, A.R. calf lens (Bos taurus, UniProt P16116); test: Inhibition of aldose reductase, calf lens; format: biochemical, bovine (calf)
T1 construct: crude enzyme extract isolated from lenses freshly obtained from bovines and rats; from tissue; host or cells: calf (bovine) lens, crude enzyme extract
Protocol: (§5) Enzyme inhibition was evaluated in vitro using a crude enzyme extract isolated from lenses freshly obtained from bovines and rats. The principle of the reaction is as follows: [drawing 3]
(§6) This reaction takes place at PH=6.2 at ambient temperature and extinctions were measured at 340 nm. The molecules tested were dissolved in twice-distilled water.
The aldose reductase inhibiting activity of the various heteroside caffeic esters (1) and (2) correspond to two different series of experiments.

[10] = target: T2, A.R. - Rat lens (Rattus norvegicus, UniProt P07943); test: Inhibition of aldose reductase, rat lens; format: biochemical
T2 construct: crude enzyme extract isolated from lenses freshly obtained from bovines and rats; from tissue; host or cells: rat lens, crude enzyme extract
Protocol: as §5, §6

[11] = target: aldose reductase; test: Inhibition of aldose reductase, comparison in the conclusion (species not given); format: biochemical; settings: value given in conclusion, species not specified; read-out: IC 50 (conclusion)
Description: The four molecules inhibit aldose reductase from both cattle and rats.

[12] = tested on: human keratinocytes; test: Anti-free-radical activity in keratinocyte cultures (MDA production); format: cell-based; settings: for inhibition at 100 µM: Homo sapiens, Keratinocyte, 2 h, 2 hours incubation, mean of 3 measurements
Protocol: The anti-free-radical activity of oraposide was investigated on a line of human keratinocytes in culture, in comparison with well known anti-free-radical agents.
The protective activity of the anti-free-radical agent was evaluated by measuring malonaldehyde (MDA) in the culture medium (reflecting the lipoperoxidation of cell membrane lipids) after the cells had been brought into contact with a source of oxygenated free radicals (after the method of Z. A. Placer et al., 1966, Anal. Biochem. 16, 359-64, reference cited above).
Cells: human keratinocytes from a squamous carcinoma.
One week after seeding the merged single layer of cells was processed with […] of a solution containing an oxygenated radical generator consisting of vitamin C 10^-3 M, FeCl3 10^-4 M, FeSO4 10^-4 M in pH 8 PBS buffer to which the molecule being tested was added (=reaction medium).
After incubation at 37° C. for 2 hours this incubation medium was recovered for the determination of MDA.
After 2 hours incubation with the cells the 500 μl of reaction medium was sampled and thiobarbituric acid was added in order to determine MDA at 532 nm.
The results are stated as % inhibition of MDA production.
The investigation was performed at a concentration of 100 μM for the 3 materials after 2 hours incubation with the reaction mixture. The MDA produced, determined by spectrophotometry, provided results which are expressed as % inhibition of this production in comparison with the controls (reaction medium alone).

[13] = tested on: tremor caused by a tremor-inducing factor; test: Antitremor activity in association with L-dopa against a tremor-inducing factor, in animals and in man; format: in vivo; settings: associated with L-dopa
Description: (§7) In accordance with a particular embodiment of the invention within the context of antitremor treatment, in particular in Parkinson's disease, the composition according to the aforesaid invention also contains a therapeutically effective amount of L-dopa. In fat oraposide and its derivatives of formula I aforesaid have a potentiating activity for L-dopa in its antitremor activity, which is effective in particular in Parkinson's disease. Oraposide and its derivatives of formula I aforesaid associated with L-dopa in fact experimentally reduce tremor caused by a tremor-inducing factor in animals and in man. In Parkinson's disease an improvement in abnormal movements (of the choreic type) and other secondary disturbances due to treatment with L-dopa is found.

[14] = tested on: Parkinson's disease; test: Effect in Parkinson's disease on abnormal movements and secondary disturbances due to treatment with L-dopa; format: in vivo; settings: associated with L-dopa
Description: as §7

[15] = tested on: human keratinocytes; test: Cytotoxicity in keratinocyte culture (LDH release); settings: for cytotoxicity (in words) / % increase in OD with respect to the control (+DMSO), D1 / % increase in OD with respect to the control (+DMSO), D2 / % increase in OD with respect to the control (+DMSO), D3: 200 μM; for cytotoxicity (in words): LDH release; for % increase in OD with respect to the control (+DMSO), D1: day 1, mean of 3 measurements; for % increase in OD with respect to the control (+DMSO), D2: day 2, mean of 3 measurements; for % increase in OD with respect to the control (+DMSO), D3: day 3, mean of 3 measurements
Protocol: Culture medium: DMEM (1/2), HAM F12 (1/2) basic medium (from the Gibco company), with added 5% foetal calf serum (from the Intermed company).
Cultures were prepared in 60 mm petri dishes (NUNC), seeding density: 5000 cells per cm^2.
The compounds were tested in solution in DMSO at 200 μM, the control cultures containing an identical amount of solvent.
The amount of LDH released into the culture medium after daily treatment with anti-free-radical molecules was determined after 24 hours and then for 6 days.
The supernatant from the culture was contacted with sodium pyruvate and NADH, and the kinetics of LDH activity were measured spectrophotometrically (Boehringer kit).

[16] = 5.10^-5 M, microsomes with NADPH (FIG. 3)

## CC1OC(OC2C(OC(=O)C=Cc3ccc(O)c(O)c3)C(CO)OC3OCC(c4ccc(O)c(O)c4)OC32)C(O)C(O)C1O [Oraposide, 3-0-(α-L-rhamnopyranosyl)-[2-(3,4-dihydroxyphenyl)-1,2-ethylidene]-β-D-glucopyranoside 4-caffeate]
[1]; surface area of UVA peak, vs Parsol 1 789
  UVA absorption relative to Parsol 1 789: approximately 0.2 times
[1]; surface area of UVB peak, vs Parsol MCX
  UVB absorption activity relative to Parsol MCX: 0.4 times
[2]
  release of LDH by hepatocytes intoxicated with nitroxynil: very significantly reduces the release of LDH
[3]
  release of LDH by hepatocytes intoxicated with chloroform: a less clear effect
[4]
  cell toxicity: no cell toxicity
[5]; [16]
  inhibition of lipoperoxidation: 100%
  inhibition of lipoperoxidation (in words): stronger inhibition
[5]; free radical generator CCl4
  inhibition of lipid oxidation potentiated by CCl4: 100%
[5]; free radical generator H2 O2
  inhibition of lipid oxidation potentiated by H2O2: 90%
[5]; read-out: dose required to obtain 50% inhibition of lipoperoxidation, FIG. 4
  IC50: 10 µM
[6]
  inhibition of all bacterial strains: 100%
[7]; 0.06 mg/ml
  inhibition at 60 µg/mL: 70%
[7]; 0.12 mg/ml
  inhibition at 120 µg/mL: 80%
[8]
  Strains whose growth was inhibited or diminished: 92%
  Strains whose growth was inhibited by an MIC <10 mg/ml: 64%
[9]; series (1)
  IC50: 0.15 µM
[9]; series (2)
  IC50: 0.165 µM
[10]
  IC50: 0.22 µM
[11]
  IC50: 0.16 µM
[12]; 100 μM
  protective power / anti-free-radical activity (in words): equally effective as BHT, but less effective than α-tocopherol
[12]; 1st experiment
  inhibition at 100 µM: 70 ± 3%
[12]; 2nd experiment
  inhibition at 100 µM: 60 ± 15%
[13]
  tremor caused by a tremor-inducing factor: reduce tremor
[14]
  abnormal movements (of the choreic type) and other secondary disturbances due to treatment with L-dopa: improvement
[15]
  cytotoxicity (in words): no cytotoxic effect
  % increase in OD with respect to the control (+DMSO), D1: 0%
  % increase in OD with respect to the control (+DMSO), D2: 0%
  % increase in OD with respect to the control (+DMSO), D3: 0%
[15]; up to 200 μM
  cytotoxic effect up to a concentration of 200 μM: no cytotoxic effect

## O=C(/C=C/c1ccc(O)c(O)c1)O[C@@H]1C[C@](O)(C(=O)O)C[C@@H](O)[C@H]1O [Chlorogenic acid]
[8]
  Strains whose growth was inhibited or diminished: 80%
  Strains whose growth was inhibited by an MIC <10 mg/ml: 40%

## C[C@@H]1O[C@@H](O[C@@H]2[C@@H](O)[C@H](OCCc3ccc(O)c(O)c3)O[C@H](CO)[C@H]2OC(=O)/C=C/c2ccc(O)c(O)c2)[C@H](O)[C@H](O)[C@H]1O [Verbascoside]
[8]
  Strains whose growth was inhibited or diminished: 72%
  Strains whose growth was inhibited by an MIC <10 mg/ml: 44%
[9]; series (1)
  IC50: 1.6 µM
[9]; series (2)
  IC50: 1.6 µM
[10]
  IC50: 1.78 µM

## O=C(O)/C=C/c1ccc(O)c(O)c1 [Caffeic acid, 3,4-dihydroxycinnamic acid]
[5]; [16]
  inhibition of lipoperoxidation (in words): equivalent inhibiting activity
[8]
  Strains whose growth was inhibited or diminished: 83%
  Strains whose growth was inhibited by an MIC <10 mg/ml: 52%

## Cc1c(C)c2c(c(C)c1O)CCC(C)(CCCC(C)CCCC(C)CCCC(C)C)O2 (stereo not drawn) [α-tocopherol, reference compound]
[5]; [16]
  inhibition of lipoperoxidation (in words): equivalent inhibiting activity
[12]
  inhibition at 100 µM: 100%
[15]
  cytotoxicity (in words): less pronounced
  % increase in OD with respect to the control (+DMSO), D1: 19 ± 2%
  % increase in OD with respect to the control (+DMSO), D2: 83 ± 20%
  % increase in OD with respect to the control (+DMSO), D3: 54 ± 8%

## Cc1cc(C(C)(C)C)c(O)c(C(C)(C)C)c1 [BHT, reference compound]
[12]
  inhibition at 100 µM: 64 ± 2%
[15]
  cytotoxicity (in words): high cytotoxicity

## O=C(/C=C/c1ccc(O)c(O)c1)O[C@H](Cc1ccc(O)c(O)c1)C(=O)O [Rosmarinic acid]
[8]
  Strains whose growth was inhibited or diminished: 100%
  Strains whose growth was inhibited by an MIC <10 mg/ml: 96%

## C[C@@H]1OC(O[C@@H]2[C@@H](O)[C@H](OCCc3ccc(O)c(O)c3)O[C@H](CO[C@@H]3OC[C@@H](O)[C@H](O)[C@H]3O)[C@H]2OC(=O)/C=C/c2ccc(O)c(O)c2)[C@H](O)[C@H](O)[C@H]1O (stereo partly shown) [Arenarioside]
[9]; series (1)
  IC50: 2.38 µM
[9]; series (2)
  IC50: 1.47 µM
[10]
  IC50: 4.18 µM
